We go through 3 compounds from paper PMC11868579 (Nature Communications, 2024).

Test [1] concerns cap-dependent and cap-independent (IRES) protein synthesis. Briefly: Bicistronic protein synthesis reporter in H1299 cells. The class given is cell-based, human. Conditions: 24 hr; for protein synthesis reporter signal (cap-dependent luciferase / IRES luciferase), replicate values: H1299, normalisation not stated. The method, then:
H1299 cells were transfected with a biscistronic vector using Lipofectamine 3000 transfection reagent (Fisher Scientific, cat#L3000008) for 24 hr and then treated with compounds for further 24 h. Luminescence was measured after 24 h of compound treatment using the Dual Glo luciferase reporter assays as above.

Test [2] deals with T1, eIF4G binding to eIF4E (Homo sapiens, UniProt P06730).
T1 construct: endogenous in cells; host or cells: SW620 cells (lysates)
Briefly: Co-immunoprecipitation with eIF4E antibody, immunoblot for eIF4G, SW620 lysates. The class given is biochemical. Conditions: 1–100 µM, 30 min.
Procedure: Cells were harvested by trypsinisation and washed with PBS before lysis in MSD lysis buffer (150 mM NaCl, 20 mM Tris pH 7.5, 1 mM EDTA, 1 mM EGTA, 1% Triton X-100) containing protease inhibitors (Roche, complete mini tablet, cat# 11836153001) and phosphatase inhibitors (50 mM NaF and 100 mM Na3VO4). Lysate was placed on ice for 30 min and then cleared in a microfuge at 17,000 x g for 10 min at 4 °C. The protein concentration of the cleared lysate was determined by BCA assay (Pierce) and adjusted to 4 mg/ml with lysis buffer. […] 100 μl of lysate and 100 μl of beads were then incubated with shaking overnight at 4 °C. Samples were then washed 3x with 1 ml PBS, resuspended in 100 μl PBS and boiled for 10 min with 1x SDS-PAGE sample buffer containing 10 μl 1 mM DTT.

Test [3] concerns the target T2, endogenous eIF4E:eIF4G interaction (Homo sapiens, UniProt P06730).
T2 construct: endogenous in cells; host or cells: HeLa, SW620 or H1299 cells (lysates; intact H1299 cells in A13)
The test is described as follows: Electro-chemiluminescent eIF4E:eIF4G assay after treatment of intact H1299 cells. Type of test: cell-based. Conditions: 100 µM; for disruption of eIF4E:eIF4G binding in intact cells: 16 hr; for endogenous eIF4E:eIF4G interaction in intact cells, electro-chemiluminescent signal, Average: H1299.

Test [4] deals with T3, eIF4E-dTAG protein (Homo sapiens, UniProt P06730).
T3 construct: expressed in transfected cells
Briefly: CETSA of eIF4E-dTAG protein in H1299 C3-1 cells. Particulars: relative to control = 1.000, n=3. The class given is cell-based. As for the experimental part:
Cells (1.5 × 10^6 cells) were plated into 75 cm^2 flasks and allowed to attached overnight. After treatment with compound 4 or 5 for 6 h, they were harvested by trypsinisation and washed x2 in ice cold PBS. Cells were resuspended in 1 ml of cold PBS supplemented with protease and phosphatase inhibitors (Fisher Scientific, cat#1861281). Resuspended cells were divided into 100 μl aliquots and centrifuged at 300 x g for 3 min at 4 °C. Following centrifugation, 75μl of supernatant was removed and cells resuspended in the remaining volume. Cell suspensions were heated at 40.9, 43.7, 48.1, 52.9, 57.6, 62.4, 67.2, 71.9, 76.3 and 79.1 °C for 3 mins followed by cooling at 20 °C for 3 min[25]. Suspensions were freeze-thawed twice using liquid nitrogen. Soluble fractions were separated from cell debris by centrifuging at 20,000 x g for 30 min at 4 °C. Samples were then analysed by Western Blot. […]
Vinculin was used as a loading control. c Thermal stabilisation of eIF4E-dTAG protein by compound 4 or 5 binding. Quantification of immunoblots from H1299 C3-1cells incubated at 57.6 °C, following treatment with compound 4 (50, 25, 10, 5, 1, 0.5 μM) or compound 5 (50 μM) for 6 hr. Vinculin was […]
(1 picture or pasted object on this page, not shown here)

Test [5] has as its system cap-dependent translation. Briefly: HeLa in vitro translation assay, cap-dependent reporter. Particulars: for fLuc (CAP) luminescence normalized to DMSO control, Average: HeLa lysate IVT, n=3. The class given is biochemical, human. The method, then:
HeLa In vitro translation (IVT) assay kits were purchased from Thermo Fisher(cat#88882). Bicistronic reporter mRNA was prepared from using a CMV/T7-renilla luciferase-IRES(FDMV)-firefly luciferase reporter vector as template DNA (supplied by Oxford Genetics Ltd.) using Message Machine T7 Ultra transcription Kit (Thermo Fisher, cat# AM1345) to generate in vitro transcribed mRNA. DNA template was removed with Turbo DNase from the transcription kit and the mRNA purified using RNeasy columns (Qiagen, cat#74204). RNA concentration was adjusted to 1 µg/µl using a Nanodrop. In vitro translation assays were then set up using a HeLa IVT kit according to the manufacturer’s protocol. The reaction was analysed using Dual Glo luciferase reporter assays (Promega, cat#E2920). Compounds were diluted from 100x DMSO stocks 1:10 in PBS and 2.5 µl transferred to 96 well PCR plates (Starlab, cat#I1402-9700). 22.5 µl IVT reaction mix (1.5 mL HeLa lysate, 60 µl RNAsin (Promega, cat#N2115), 300 µl accessory proteins, 600 µl reaction buffer, 200 µl nuclease free water and 30 µl […] mRNA) was added and incubated for 30 min at 30 °C (PCR alphacycler 4, PCRmax, Stone, Staffordshire, UK). The samples were placed on ice for 10 min, then 10 µl was removed and transferred to a white 96 well assay plate (Corning, cat#3917). […]

Test [6] relates to eIF4E-dTAG (FKBP12^F36V-tagged eIF4E). The test is described as follows: Immunoblot of eIF4E-dTAG degradation in H1299 eIF4E-dTAG clones. Particulars: 6 h at ≈ 2–5x the IC50. The class given is cell-based, human. The method, then: Treatment of isolated clones with the heterobifunctional dTAG^V−1 molecule recruits E3 ligase VHL to degrade eIF4E-dTAG. […] Parental H1299 cells and the selected eIF4E-dTAG clones were treated with 0.5 and 1 µM dTAG^V−1 for 6, 8, or 16 h. Vinculin was used as a loading control (n = 3 biological replicates). c Real-time cell growth measurements of the selected eIF4E-dTAG clones treated with 0.5 or 1 µM dTAG^V−1. Cell confluency (%) was monitored every 4 h over 6 days using Incucyte Zoom. Significance was determined using a one-way ANOVA with Tukey multiple comparisons test comparing dTAG^V−1 treatment with the control in each cell line. […] Significant differences between control and treated samples were determined using MSstats. […]
After seeding overnight in 6 well plates (Corning, cat#353046), cells were treated with compounds for the indicated times and concentration, harvested and the cell pellet lysed on ice in cell lysis buffer (Cell Signaling, cat#9803), supplemented with 1x Halt^TM protease inhibitor cocktail (Fisher Scientific, cat#78429) and cOmplete^TM protease inhibitor cocktail (Sigma-Aldrich, cat#11836153001) for 1 hr. Protein was quantified using BCA protein kit (Fisher Scientific, cat#23225). […] Quantitative densitometry analysis of protein bands was performed using Image J v1.53 software.
(Immunoblotting shows a protein as a band on a membrane.)

Several values for one entry are separate records, joined by “and”; a condition that tells them apart may be missing. Equal values may be shown once.

T3 sequence (P06730 with tags, fused parts or gaps): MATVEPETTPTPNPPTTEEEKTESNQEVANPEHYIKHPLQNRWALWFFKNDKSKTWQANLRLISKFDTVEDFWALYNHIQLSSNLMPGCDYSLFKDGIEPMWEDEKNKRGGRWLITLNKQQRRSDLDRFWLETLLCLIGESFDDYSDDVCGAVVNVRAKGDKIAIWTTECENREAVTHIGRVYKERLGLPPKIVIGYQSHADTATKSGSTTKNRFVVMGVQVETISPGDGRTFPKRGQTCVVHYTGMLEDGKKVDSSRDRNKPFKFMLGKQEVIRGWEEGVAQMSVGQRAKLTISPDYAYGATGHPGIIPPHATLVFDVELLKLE
T2 sequence (P06730 2-217 limits assumed): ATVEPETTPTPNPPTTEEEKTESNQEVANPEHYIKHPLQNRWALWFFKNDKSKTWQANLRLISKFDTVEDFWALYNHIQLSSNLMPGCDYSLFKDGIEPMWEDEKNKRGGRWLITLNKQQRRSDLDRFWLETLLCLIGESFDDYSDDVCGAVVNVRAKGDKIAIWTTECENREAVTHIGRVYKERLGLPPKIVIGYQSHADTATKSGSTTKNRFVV
T1 sequence (P06730 2-217 limits assumed): as above

Consider `CC[C@@H](O[C@H](C)CO)c1ccc(-c2ccccc2F)cc1NCCO` [Compound 5], for which the “protein synthesis reporter signal (cap-dependent luciferase / IRES luciferase), replicate values” is 0.991 and 1.031 and 2.154 and 1.191 and 1.096 and 0.294 in test [1] (10 μM); 1.003 and 1.037 and 1.187 and 0.927 and 1.046 and 2.532 in test [1] (25 μM). The “effect on eIF4G binding to eIF4E (co-immunoprecipitation)” value in test [2] is on record as “limited effect”. Moreover, the “disruption of eIF4E:eIF4G binding in intact cells” value in test [3] is reported as “some limited evidence of activity”. Besides, the “endogenous eIF4E:eIF4G interaction in intact cells, electro-chemiluminescent signal, Average” value amounted to 1584729.4 in test [3] (6hr, control 1641896.8) and 1071107.1 in test [3] (16hr, control 1700881.1). Moreover, the “Thermal stabilisation of eIF4E-dTAG protein, Average” value in test [4] (50 μM) came to 1.004. In addition, in test [5] (1, 10, 100 µM), the “effect on cap-dependent translation” value was “no significant effect”. Besides, the “fLuc (CAP) luminescence normalized to DMSO control, Average” value in test [5] (1 μM) stood at 115.8%; in test [5] (10 μM), 67.5%; in test [5] (100 μM) it was 84.6%.
Take `CC[C@H](C(=O)N1CCCC[C@H]1C(=O)O[C@H](CCc1ccc(OC)c(OC)c1)c1ccccc1OCC(=O)NCCCCCCC(=O)N[C@H](C(=O)N1C[C@H](O)C[C@H]1C(=O)N[C@@H](C)c1ccc(-c2scnc2C)cc1)C(C)(C)C)c1cc(OC)c(OC)c(OC)c1` [dTAG^V-1]: the “loss of eIF4E-dTAG” value in test [6] is given as “near complete loss of eIF4E-dTAG”.
Turning to `CC[C@H](O[C@H](C)CO)c1ccc(-c2ccccc2F)cc1NCCO` [Compound 4], the “protein synthesis reporter signal (cap-dependent luciferase / IRES luciferase), replicate values” is 0.798 and 0.925 and 1.853 and 1.040 and 0.865 and 0.241 in test [1] (10 μM); 1.174 and 0.369 and 0.133 and 0.780 and 0.760 and 1.031 in test [1] (25 μM). Moreover, the “inhibitory activity in dual reporter assay” value in test [1] (H1299 cells) is listed as “lacked inhibitory activity”. Besides, the “effect on eIF4G binding to eIF4E (co-immunoprecipitation)” value in test [2] is reported as “disrupted eIF4G binding to eIF4E”. The “disruption of eIF4E:eIF4G binding in intact cells” value in test [3] is recorded as “significantly disrupt eIF4E:eIF4G binding”. In addition, the “endogenous eIF4E:eIF4G interaction in intact cells, electro-chemiluminescent signal, Average” value was 1444726.0 in test [3] (6hr, control 1641896.8) and 549014.1 in test [3] (16hr, control 1700881.1). Further, the “Thermal stabilisation of eIF4E-dTAG protein, Average” value in test [4] (0.5 μM) was found to be 1.070; in test [4] (1 μM) it was 1.047; in test [4] (5 μM) it was 1.235; in test [4] (10 μM), 1.737; in test [4] (25 μM), 1.613; in test [4] (50 μM), 1.946. The results for the “fLuc (CAP) luminescence normalized to DMSO control, Average” value in test [5] (1 μM), in test [5] (10 μM) and in test [5] (100 μM) were 79.4%, 29.0% and 23.9%, respectively.
